Data from patent US20250144051A1, “Colchicine for Treating Connective Tissue Disorders” (Khan Sciences, Inc., priority 2023, published 2025).

Assays:
[1] = tested on: TNF-α; test: In vitro tendinopathy model, TNF-α in tenocyte supernatant (MSD multiplex); assay type: cell-based, human
Description: (§1) In Vitro Tendinopathy Model: The below experiment was conducted on an in vitro tendinopathy model. Cells derived from human tendons (tenocytes) can serve as an in vitro model of tendons. See Miller et al., “MicroRNA29a regulates IL-33-mediated tissue remodelling in tendon disease.” Nat Commun 6, 6774 (2015). Cultured tenocytes can be used to investigate the effects of pro-inflammatory cytokines upon the most basic elements of tendon structure. See Ellis et al., “Defining the profile: Characterizing cytokines in tendon injury to improve clinical therapy.” Journal of Immunology and Regenerative Medicine 16, 100059 (2022). When a tendon is injured, it triggers a local inflammatory response that involves immune cell infiltration and the expression of pro-inflammatory mediators. This inflammatory environment can modify tenocyte physiology, causing them to become activated and pro-inflammatory. Exposing the tenocytes to the pro-inflammatory cytokines TNF-α and IL-1β can mimic the effects of tendon injury. See Smith et al., “Tumour necrosis factor alpha, interleukin 1 beta and interferon gamma have detrimental effects on equine tenocytes that cannot be rescued by IL-1RA or mesenchymal stromal cell-derived factors.” Cell Tissue Res 391, 523-544 (2023).
(§2) Cell Culture System. Immortalized, healthy, commercially-sourced human tenocyte cells (donor, patellar tendon) were reconstituted, seeded in T-75 flasks coated with bovine collagen I, and were maintained in Tenocyte Growth Medium supplemented with Tenocyte Growth Supplement, FBS, and penicillin/streptomycin. Culture conditions were maintained at 37° C. in a humidified 5% CO2 atmosphere. Cells were seeded at a density of 100,000 cells/well in commercially-sourced 24-well plates that were pre-coated with rat tail tendon collagen I.
(§3) Treatment Protocol. This study was designed to follow the time-course of collagen production after cytokine exposure to mimic the effects of tendon injury. The time variable was cytokine exposure time (6 hours, 1 day, 3 days, and 5 days). Each of these cytokine exposure time periods was followed by a 24-hour drug treatment period. Inflammatory conditions were induced using a combination of IL-1β (1 nM; 17 ng/ml) and TNF-α (10 ng/ml). Two therapeutic interventions were evaluated. The treatment designated as “treatment A” was colchicine (2 nM). The treatment designated as “treatment B” was colchicine (2 nM) plus pyridoxine (100 μM).
(§4) Experimental Groups. The treatment groups were as follows: (1) exposed to inflammatory cytokines plus treatment A; (2) exposed to inflammatory cytokines plus treatment B; (3) exposed to inflammatory cytokines (negative control, no drug). Further reference control groups were as follows: (A) treatment A without inflammatory cytokine exposure (drug-only control); (B) treatment B without inflammatory cytokine exposure (drug-only control); (C) healthy control (no inflammatory cytokines, no drug treatment).
(§5) Sample Collection Times. Samples were collected at the following timepoints after initiation of cytokine exposure: • 6-hour samples: Collection at 30 hours (6 hr cytokine exposure+24 hr drug treatment) • 1-day samples: Collection at 48 hours (24 hr cytokine exposure+24 hr drug treatment) • 3-day samples: Collection at 96 hours (72 hr cytokine exposure+24 hr drug treatment) • 5-day samples: Collection at 144 hours (120 hr cytokine exposure+24 hr drug treatment, cell culture medium replenished on day-3)
(§6) Assays Used. Collagen I (human) content was measured using enzyme-linked immunosorbent assay (ELISA) in cell culture supernatants. TGF-β1 in cell culture supernatants were measured using the MSD multiplex platform. Other inflammatory cytokines in cell culture supernatants were measured using the MSD multiplex platform.

[2] = tested on: Collagen I (human); test: In vitro tendinopathy model, collagen I ELISA in tenocyte culture supernatant; assay type: cell-based
Description: as §1, §2, §3, §4
Sample Collection Times. […]
as §6

[3] = tested on: IFN-γ; test: In vitro tendinopathy model, IFN-γ in tenocyte supernatant (MSD multiplex); assay type: cell-based, human; set-up: IFN-γ, % of negative control / reduction of IFN-γ levels compared to negative control: concentration or dose not given beside the values
Description: as §1, §2, §3, §4, §5, §6

[4] = tested on: TGF-β1; test: In vitro tendinopathy model, TGF-β1 in tenocyte supernatant (MSD multiplex); assay type: cell-based, human
Description: as §1, §2, §3, §4, §5, §6

[5] = tested on: IL-6; test: In vitro tendinopathy model, IL-6 in tenocyte supernatant (MSD multiplex); assay type: cell-based, human
Description: as §1, §2, §3, §4, §5, §6

[6] = tested on: VEGF; test: In vitro tendinopathy model, VEGF in tenocyte supernatant (MSD multiplex); assay type: cell-based, human; set-up: VEGF, % of negative control / increase of VEGF levels compared to negative control: concentration or dose not given beside the values
Description: as §1, §2, §3, §4, §5, §6

[7] = tested on: patient with bilateral upper extremity tendonitis (repetitive strain injury); test: Experimental clinical trial of oral colchicine in one patient with tendonitis; assay type: in vivo, human
Description: An experimental trial was conducted on a patient, who was a person with bilateral upper extremity tendonitis for 7 months duration. The symptoms at the wrist radiated down to their fingers and up to their elbow. They reported the severity of their symptoms as 5-7 on a 1-10 standard discomfort scale. The cause of their widespread tendonitis was repetitive strain injury.
The patient began treatment with 0.6 mg of colchicine by oral intake once daily. […] With continued daily dosing of colchicine for a total of two weeks duration, symptoms were nearly gone. They were free of symptoms while performing their activities of daily living. At the end of two weeks of treatment, the patient reported reduced severity of symptoms to a level of 2 on a standard 1-10 discomfort scale.
The experimental trial was further extended to observe the effect of discontinuing the colchicine after initially achieving therapeutic success. Upon discontinuing, their tendonitis symptoms gradually returned. After 7 days without treatment, they reported the severity of their symptoms had worsened to 5 on the standard scale. After another 14 days without treatment (21 days cumulative), their symptoms remained at level 5, and occasionally rising to level 6 with increased arm use activity.

[8] = tested on: IL-33; test: In vitro tendinopathy model, IL-33 in tenocyte supernatant (MSD multiplex); assay type: cell-based, human; set-up: IL-33, % of negative control / reduction of IL-33 levels compared to negative control: concentration or dose not given beside the values
Description: as §1, §2, §3, §4, §5, §6

[9] = 6 hr cytokine exposure + 24 hr drug treatment
[10] = 1 day cytokine exposure + 24 hr drug treatment
[11] = 3 days cytokine exposure + 24 hr drug treatment
[12] = 5 days cytokine exposure + 24 hr drug treatment

COc1cc2c(c(OC)c1OC)-c1ccc(OC)c(=O)cc1[C@@H](NC(C)=O)CC2 [Treatment A, colchicine]
TNF-α, % of healthy level [1, 9]: 926.9%
TNF-α, % of negative control [1, 9]: 116.7%
TNF-α level ([1]; 6 hr cytokine exposure + 24 hr drug treatment, negative control 1678.4 pg/mL): 1958.4 pg/mL
TNF-α, % of healthy level [1, 10]: 806.3%
TNF-α, % of negative control [1, 10]: 129.3%
TNF-α level ([1]; 1 day cytokine exposure + 24 hr drug treatment, negative control 1317.2 pg/mL): 1703.5 pg/mL
TNF-α, % of healthy level [1, 11]: 617.0%
TNF-α, % of negative control [1, 11]: 135.8%
TNF-α level ([1]; 3 days cytokine exposure + 24 hr drug treatment, negative control 960.1 pg/mL): 1303.6 pg/mL
TNF-α, % of healthy level [1, 12]: 424.1%
TNF-α, % of negative control [1, 12]: 108.7%
TNF-α level ([1]; 5 days cytokine exposure + 24 hr drug treatment, negative control 824.1 pg/mL): 895.9 pg/mL
TNF-α level ([1]; drug alone, without inflammatory cytokines, healthy control 211.3 pg/mL): 1.1 pg/mL
collagen I level ([2]; 6 hr IL-1β + TNF-α exposure + 24 hr drug treatment, negative control 24 ng/mL): 20 ng/mL
collagen I level ([2]; 1 day IL-1β + TNF-α exposure + 24 hr drug treatment, negative control 20 ng/ml): 19 ng/mL
collagen I level ([2]; 3 days IL-1β + TNF-α exposure + 24 hr drug treatment, negative control 23 ng/ml): 21 ng/mL
collagen I level ([2]; 5 days IL-1β + TNF-α exposure + 24 hr drug treatment, negative control 28 ng/ml): 28 ng/mL
collagen I level ([2]; drug alone, without inflammatory cytokines, healthy control 30 ng/ml): 17 ng/mL
reduction of IFN-γ levels compared to negative control ([3]; 6-hour timepoint): 28.4%
IFN-γ, % of healthy level [3, 9]: 154.5%
IFN-γ, % of negative control [3, 9]: 71.6%
IFN-γ level ([3]; 6 hr cytokine exposure + 24 hr drug treatment, negative control 17.6 pg/ml): 12.6 pg/mL
IFN-γ, % of healthy level [3, 10]: 186.9%
IFN-γ, % of negative control [3, 10]: 98.0%
IFN-γ level ([3]; 1 day cytokine exposure + 24 hr drug treatment, negative control 15.6 pg/ml): 15.3 pg/mL
IFN-γ, % of healthy level [3, 11]: 112.1%
IFN-γ, % of negative control [3, 11]: 72.4%
IFN-γ level ([3]; 3 days cytokine exposure + 24 hr drug treatment, negative control 12.7 pg/mL): 9.2 pg/mL
IFN-γ, % of healthy level [3, 12]: 160.7%
IFN-γ, % of negative control [3, 12]: 80.7%
IFN-γ level ([3]; 5 days cytokine exposure + 24 hr drug treatment, negative control 16.3 pg/mL): 13.1 pg/mL
IFN-γ level ([3]; drug alone, without inflammatory cytokines, healthy control 8.2 pg/mL): 3.1 pg/mL
TGF-β1, % of negative control [4, 9]: 127%
TGF-β1 level ([4]; 6 hr cytokine exposure + 24 hr drug treatment, negative control 0.97 ng/ml): 1.23 ng/mL
TGF-β1, % of negative control [4, 10]: 104%
TGF-β1 level ([4]; 1 day cytokine exposure + 24 hr drug treatment, negative control 1.22 ng/ml): 1.28 ng/mL
TGF-β1, % of healthy baseline [4, 11]: 112%
TGF-β1, % of negative control [4, 11]: 114%
TGF-β1 level ([4]; 3 days cytokine exposure + 24 hr drug treatment, negative control 1.70 ng/ml): 1.94 ng/mL
TGF-β1, % of negative control [4, 12]: 108%
TGF-β1 level ([4]; 5 days cytokine exposure + 24 hr drug treatment, negative control 1.22 ng/mL): 1.32 ng/mL
TGF-β1 level ([4]; drug alone, without inflammatory cytokines, healthy control 1.73 ng/ml): 1.90 ng/mL
TGF-β1, % of healthy baseline ([4]; drug-only control, without inflammatory cytokines): 110%
IL-6, % of healthy level [5, 9]: 873.4%
IL-6, % of negative control [5, 9]: 185.1%
IL-6 level ([5]; 6 hr cytokine exposure + 24 hr drug treatment, negative control 1614.8 pg/mL): 2989.5 pg/mL
IL-6, % of healthy level [5, 10]: 617.8%
IL-6, % of negative control [5, 10]: 122.5%
IL-6 level ([5]; 1 day cytokine exposure + 24 hr drug treatment, negative control 1726.6 pg/mL): 2114.9 pg/mL
IL-6, % of healthy level [5, 11]: 397.3%
IL-6, % of negative control [5, 11]: 127.5%
IL-6 level ([5]; 3 days cytokine exposure + 24 hr drug treatment, negative control 1067.0 pg/mL): 1360.1 pg/mL
IL-6, % of healthy level [5, 12]: 207.0%
IL-6, % of negative control [5, 12]: 101.7%
IL-6 level ([5]; 5 days cytokine exposure + 24 hr drug treatment, negative control 696.6 pg/mL): 708.5 pg/mL
IL-6 level ([5]; drug alone, without inflammatory cytokines, healthy control 342.3 pg/mL): 73.7 pg/mL
VEGF, % of healthy level [6, 9]: 263.2%
VEGF, % of negative control [6, 9]: 157.0%
VEGF level ([6]; 6 hr cytokine exposure + 24 hr drug treatment, negative control 333.6 pg/mL): 523.8 pg/mL
VEGF, % of healthy level [6, 10]: 401.8%
VEGF, % of negative control [6, 10]: 133.4%
VEGF level ([6]; 1 day cytokine exposure + 24 hr drug treatment, negative control 599.5 pg/mL): 799.7 pg/mL
VEGF, % of healthy level [6, 11]: 314.0%
VEGF, % of negative control [6, 11]: 112.6%
VEGF level ([6]; 3 days cytokine exposure + 24 hr drug treatment, negative control 555.0 pg/mL): 624.9 pg/mL
VEGF, % of healthy level [6, 12]: 229.0%
VEGF, % of negative control [6, 12]: 117.9%
VEGF level ([6]; 5 days cytokine exposure + 24 hr drug treatment, negative control 386.6 pg/mL): 455.8 pg/mL
increase of VEGF levels compared to negative control ([6]; at 6 hours): 57%
VEGF level ([6]; drug alone, without inflammatory cytokines, healthy control 199.0 pg/mL): 621.7 pg/mL
tendonitis symptoms ([7]; 0.6 mg oral once daily, by the second day of treatment): began to improve
severity of symptoms on standard 1-10 discomfort scale ([7]; 0.6 mg oral once daily, end of two weeks of treatment, before treatment 5-7): 2
tendonitis symptoms ([7]; 0.6 mg oral once daily, total of two weeks duration): nearly gone
severity of symptoms on standard 1-10 discomfort scale ([7]; 7 days without treatment after discontinuing colchicine): 5
severity of symptoms on standard 1-10 discomfort scale ([7]; 21 days cumulative without treatment after discontinuing colchicine): 5
IL-33, % of healthy level [8, 9]: 113.6%
IL-33, % of negative control [8, 9]: 55.0%
IL-33 level ([8]; 6 hr cytokine exposure + 24 hr drug treatment, negative control 18.0 pg/mL): 9.9 pg/mL
IL-33, % of healthy level [8, 10]: 128.1%
IL-33, % of negative control [8, 10]: 85.1%
IL-33 level ([8]; 1 day cytokine exposure + 24 hr drug treatment, negative control 13.1 pg/mL): 11.2 pg/mL
IL-33, % of healthy level [8, 11]: 87.1%
IL-33, % of negative control [8, 11]: 70.8%
IL-33 level ([8]; 3 days cytokine exposure + 24 hr drug treatment, negative control 10.7 pg/mL): 7.6 pg/mL
IL-33, % of healthy level [8, 12]: 167.4%
IL-33, % of negative control [8, 12]: 85.4%
IL-33 level ([8]; 5 days cytokine exposure + 24 hr drug treatment, negative control 17.1 pg/ml): 14.6 pg/mL
reduction of IL-33 levels compared to negative control ([8]; at 6 hours): 45%
IL-33 level ([8]; drug alone, without inflammatory cytokines, healthy control 8.7 pg/mL): 3.4 pg/mL
